In US5776489A, “Controlled release carbonic anhydrase inhibitor containing pharmaceutical compositions from spherical granules in capsule oral dosage unit form” (priority 1992, dated 1998):
In brackets after ≈: the same amount, converted by molar mass.

What was measured:
[1] = pH 1.2
[2] = cited from earlier work

In the case of `CC(=O)/N=c1/sc(S(N)(=O)=O)nn1C` [methazolamide], the “degradation in gastric fluid” value [1] is given as “degradation”, the “solubility in gastric fluid” value [1] is given as “poor solubility” and the solubility ([2]; pH 7.2 phosphate buffer) is given as 3400 µg/mL (≈ 14.4 mM). For the same molecule, the aqueous solubility ([2]; water, 25° C.) was 1500 µg/mL (≈ 6.35 mM).
